In experiment [1] the test system is TNF-α (TNF-alpha) production in human PBMC (peripheral blood mononuclear cells). In words: Inhibition of TNF-alpha production in human PBMC assay (MSD technology). The class given is cell-based. As to conditions: Homo sapiens, PBMC, LPS stimulated, measured and/or mean of n measurements, read-out: PBMC pIC50 (MSD assay), inhibition of TNF-α production (converted). On the procedure: A 96-well plate (96 MicroWell™ Plates Nunclon™Δ-High Flange Design, Fisher Scientific UK, Bishop Meadow Road, Loughborough LE 11 5 RG, Leicestershire, UK) is prepared by initially adding to column 1 ca. 10 mM of test compound dissolved in DMSO. […] The compound is further diluted with DMSO into columns 2 to 9 by 8 successive 3-fold dilutions using the Biomek® FX Laboratory Automation Workstation (Beckman Coulter, Inc., 4300 N. Harbor Boulevard, P.O. Box 3100, Fullerton, Calif. 92834-3100, USA). Column 10 is used as a DMSO negative control (High Signal, 0% response), whilst column 11, which contains 10 mM of the PDE4 inhibitor roflumilast, is used as a positive control (Low Signal, 100% response). About 1 μl (about 1 ul) of compound is transferred to the compound plate using the Biomek® FX.
PBMC cells (peripheral blood mononuclear cells) are prepared from heparinised human blood (using 1% v/v Heparin Sodium 10001 U/ml Endotoxin Free, Leo Laboratories Ltd., Cashel Road, Dublin 12. Ireland, Cat No: PL0043/0149) from normal volunteers using the Accuspin™ System-Histopaque®-1077 essentially (Sigma-Aldrich Company Ltd., The Old Brickyard New Rd, Gillingham, Dorset SP8 4XT, UK). About 20 ml of blood is overlaid onto 15 ml Histopaque® in Accuspin™ tubes. The tube is then centrifuged at about 800 g for ca. 20 minutes. The cells are collected from the interface, washed by centrifugation (ca. 1300 g, ca. 10 minutes) and resuspended in RPMI1640 medium (Low endotoxin RPMI1640 medium, Cat No: 31870-025, Invitrogen Corporation Invitrogen Ltd, 3 Fountain Drive, Inchinnan Business Park, Paisley PA4 9RF, UK) containing 10% foetal calf serum, 1% L-glutamine (Invitrogen Corporation, Cat No: 25030024) and 1% penicillin/streptomycin (Invitrogen Corporation, Cat No: 15140-122). Viable cells are counted by trypan blue staining and diluted to 1×10^6 viable cells/ml. About 50 μl (about 50 ul) of diluted cells and about 75 μl (about 75 ul) of LPS (ca. 1 ng/ml final; Sigma Cat No: L-6386) are added to the compound plate, which is then incubated at 37° C., 5% CO2, for 20 hours.
The supernatant is removed and the concentrations of TNF-α are determined by electrochemiluminescence assay using the Meso Scale Discovery (MSD) technology (Meso Scale Discovery, 9238 Gaither Road, Gaithersburg, Md. 20877, USA). See the “TNF-α (TNF-alpha) MSD Assay” described below for typical details.
For the following Examples, which are compounds of formula (I) or salts thereof, and generally when using the one of the above assays, or a generally similar or generally analogous assay, the measured and/or mean pIC50 values for inhibition of TNF-α (TNF-alpha) production in PBMCs are generally as follows (subject to a possibly-large variability or error):
Using the Biomek FX, 25 μl (25 ul) of MSD Human Serum Cytokine Assay Diluent (Meso Scale Discovery, 9238 Gaither Road, Gaithersburg, Md. 20877) is added to a 96-well High-Bind MSD plate pre-coated with anti-hTNF alpha capture antibody (MA6000) and then incubated for 24 hours at 4° C. to prevent non-specific binding. About 20 μl (ul) of supernatant from the PBMC plate or about 40 μl (ul) of supernatant from the whole blood (WB) plate are then transferred from columns 1-11 to columns 1-11 of the MSD plate using the Biomek FX. About 20 μl (ul) of TNF-α standard (Cat No. 210-TA; R&D Systems Inc., 614 McKinley Place NE, Minneapolis, Minn. 55413, USA) are added to column 12 of the MSD plate to generate a standard calibration curve (about 0 to 30000 pg/ml final).
For the Whole Blood assay, plates are washed after 2 hours shaking with a Skanwasher 300 version B (Skatron Instruments AS. PO Box 8, N-3401 Lier, Norway). About 40 μl (ul) of diluted sulfo-TAG antibody (ca. […] final) is added, the plates are shaken at room temperature for 1 hours, and the plates washed again as above. About 150 μl (ul) of Read Buffer T (2×) is added to the plates, which are then read on a MSD Sector 6000. […]

The target in experiment [2] is T1, PDE4B (human recombinant) (Homo sapiens, UniProt Q07343).
T1 construct: made in house; host or cells: Saccharomyces cerevisiae strain GL62 (PDE-deficient yeast)
T1 sequence (Q07343 1-564 isoform Q07343-2): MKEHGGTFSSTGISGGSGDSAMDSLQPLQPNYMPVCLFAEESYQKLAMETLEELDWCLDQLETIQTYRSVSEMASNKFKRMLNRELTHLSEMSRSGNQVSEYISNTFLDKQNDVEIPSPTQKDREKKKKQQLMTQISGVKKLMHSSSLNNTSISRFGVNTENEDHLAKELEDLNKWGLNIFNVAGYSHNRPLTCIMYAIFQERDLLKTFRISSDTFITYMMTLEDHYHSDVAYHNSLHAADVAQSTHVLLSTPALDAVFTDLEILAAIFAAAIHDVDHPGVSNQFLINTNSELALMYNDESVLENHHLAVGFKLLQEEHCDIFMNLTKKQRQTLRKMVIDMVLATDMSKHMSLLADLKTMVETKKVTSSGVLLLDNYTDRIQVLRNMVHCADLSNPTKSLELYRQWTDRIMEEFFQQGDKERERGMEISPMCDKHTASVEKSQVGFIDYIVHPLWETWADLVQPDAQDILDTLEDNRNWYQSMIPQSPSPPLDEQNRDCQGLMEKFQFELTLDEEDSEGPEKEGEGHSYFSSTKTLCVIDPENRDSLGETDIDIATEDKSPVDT
In words: Inhibition of PDE4B activity (FP and/or SPA assay). The class given is biochemical. The following applies: generally FP assay; one reading or average of n readings; read-out: PDE4B pIC50 (generally in FP assay) (±about 0.5) (converted). The source says:
Human recombinant PDE4B, in particular the 2B splice variant thereof (HSPDE4B2B), is disclosed in WO 94/20079 and also M. M. McLaughlin et al., “A low Km, rolipram-sensitive, cAMP-specific phosphodiesterase from human brain: cloning and expression of cDNA, biochemical characterisation of recombinant protein, and tissue distribution of mRNA”, J. Biol. Chem., 1993, 268, 6470-6476. For example, in Example 1 of WO 94/20079, human recombinant PDE4B is described as being expressed in the PDE-deficient yeast Saccharomyces cerevisiae strain GL62, e.g. after induction by addition of 150 uM CuSO4, and 100,000×g supernatant fractions of yeast cell lysates are described for use in the harvesting of PDE4B enzyme.
The ability of compounds to inhibit catalytic activity at PDE4B or 4D (human recombinant), PDE3 (from bovine aorta), PDE5 (human recombinant) or PDE6 (from bovine retina) can optionally be determined by Scintillation Proximity Assay (SPA) in a 96-well format.
Test compounds (as a solution in DMSO, suitably about 2 microlitre (ul) volume of DMSO solution) are preincubated at ambient temperature (room temperature, e.g. 19-23° C.) in Wallac Isoplates (code 1450-514) with PDE enzyme in 50 mM Tris-HCl buffer pH 7.5, 8.3 mM MgCl2, 1.7 mM EGTA, 0.05% (w/v) bovine serum albumin for 10-30 minutes (usually 30 minutes). The enzyme concentration is adjusted so that no more than 20% hydrolysis of the substrate defined below occurs in control wells without compound, during the incubation. For the PDE3, PDE4B and PDE4D assays, [5′,8-^3H]Adenosine 3′,5′-cyclic phosphate (Amersham Pharmacia Biotech, code TRK.559; or Amersham Biosciences UK Ltd, Pollards Wood, Chalfont St Giles, Buckinghamshire HP8 4SP, UK) is added to give 0.05uCi per well and about 10 nM final concentration. For the PDE5 and PDE6 assays, [8^−3H]Guanosine 3′,5′-cyclic phosphate (Amersham Pharmacia Biotech, code TRK.392) is added to give 0.05uCi per well and about 36 nM final concentration. Plates containing assay mixture, suitably approx. 100 ul volume of assay mixture, are mixed on an orbital shaker for 5 minutes and incubated at ambient temperature for 1 hour. Phosphodiesterase SPA beads (Amersham Pharmacia Biotech, code RPNQ 0150) are added (about 1 mg per well) to terminate the assay. Plates are sealed and shaken and allowed to stand at ambient temperature for 35 minutes to 1 hour (suitably 35 minutes) to allow the beads to settle. Bound radioactive product is measured using a WALLAC TRILUX 1450 Microbeta scintillation counter. For inhibition curves, 10 concentrations (e.g. 1.5 nM-30 uM) of each compound are assayed. Curves are analysed using ActivityBase and XLfit (ID Business Solutions Limited, 2 Ocean Court, Surrey Research Park, Guildford, Surrey GU2 7QB, United Kingdom) Results are expressed as pIC50 values.
The ability of compounds to inhibit catalytic activity at PDE4B (human recombinant) or PDE4D (human recombinant) can optionally be determined by IMAP Fluorescence Polarisation (FP) assay (IMAP Explorer kit, available from Molecular Devices Corporation, Sunnydale, Calif., USA; Molecular Devices code: R8062) in 384-well format.
The IMAP FP assay is able to measure PDE activity in an homogenous, non-radioactive assay format. The FP assay uses the ability of immobilised trivalent metal cations, coated onto nanoparticles (tiny beads), to bind the phosphate group of Fl-AMP that is produced on the hydrolysis of fluorescein-labelled (Fl) cyclic adenosine mono-phosphate (Fl-cAMP) to the non-cyclic Fl-AMP form. […] Binding of Fl-AMP product to the beads (coated with the immobilised trivalent cations) slows the rotation of the bound Fl-AMP and leads to an increase in the fluorescence polarisation ratio of parallel to perpendicular light. Inhibition of the PDE reduces/inhibits this signal increase. […]

Consider `CCc1nc2c(cnn2CC)c(NC2CCN(C(N)=O)CC2)c1CNC(=O)c1ccc(CCCCOCCCCN2CCOCC2)cc1` [Example 23, 4-({1,6-diethyl-5-[({[4-(4-{[4-(4-morpholinyl)butyl]oxy}butyl)phenyl]carbonyl}amino)methyl]-1H-pyrazolo[3,4-b]pyridin-4-yl}amino)-1-piperidinecarboxamide], for which the IC50 in experiment [1] was around 0.631 nM; in experiment [2], around 0.0794 nM.

The record behind these values is patent US20090325952A1, “PYRAZOLO[3,4-B]PYRIDINE COMPOUNDS, AND THEIR USE AS PDE4 INHIBITORS” (Glaxo Group Limited, priority 2006, published 2009).
